Measurements taken from patent publication US7935708B2, “Dihydropyrazolopyrimidinone derivatives” (MSD K.K., priority 2006, dated 2011).

What was measured:
[1] = system: Cdc2 (Cdk1) tyrosine 15 phosphorylation in NCI-H1299 cells; test: Cdc2 (Cdk1) tyrosine 15-phosphorylation-inhibitory effect in camptothecin-treated NCI-H1299 cells (ELISA); assay type: cell-based; details: Homo sapiens, camptothecin 200 nM 16 hours, then test compound with nocodazole 8 hours, read-out: Cdc2-Y15 Phosphorylation-Inhibitory Effect (H1299, + camptothecin) (EC50)
Description: Pharmaceutical Text 2 (Method of Determining Drug Potency in Cells (Cdc2 (Cdk1) Tyrosine 15-Phosphorylation-Inhibitory Effect))
Fetal bovine serum (FBS) was obtained from Morgate; media RPMI1640 and DMEM were from Invitrogen; camptothecin was from Sigma; gemcitabine was from Nippon Eli Lilly; nocodazole and protease inhibitor cocktail were from Sigma; rabbit anti-Cdc2 antibody and mouse anti-Cdc2 antibody were from Santa Cruz Biotechnology; rabbit anti-tyrosine 15-phosphorylated Cdc2 antibody and horseradish peroxidase-labeled anti-mouse IgG antibody were from Cell Signaling Technology; sure blue reserve TMB peroxidase substrate was from Kirkegaard and Perry Laboratories.
Human non-small cell lung cancer cells (NCI-H1299) and human colon cancer cells (WiDr) were obtained from American Type Culture Collection (ATCC).
(§1) c) Method of Effect Determination:
In the method of using NCI-H1299 cells, the cells were suspended in RPMI1640 containing 10% FBS, and the cell suspension was applied to a 96-well Nunclondelta-processed plastic plate (bought from Nunc), in an amount of 2000 cells/100 μL/well, in which the cells were incubated overnight in 5% CO2-95% air at 37° C. Camptothecin was dissolved in dimethylsulfoxide (DMSO), and diluted with RPMI1640 containing 10% FBS, and then this was applied to the plate on which the cells had been previously sowed, in an amount of 50 μL/well in such a manner that the final concentration of camptothecin could be 200 nM. Then, the cells were incubated for 16 hours at 37° C. in 5% CO2-95% air. The test compound was stepwise diluted with DMSO, then diluted with 4000 nM nocodazole-containing RPMI1640 containing 10% FBS, and applied to the plate on which the camptothecin-treated cells had been sowed, in an amount of 50 μL/well. The cells were incubated for 8 hours at 37° C. in 5% CO2-95% air, then the medium was removed, and a cytolytic buffer was added to the plate in an amount of 100 μL/well, shaken at 4° C. for 2 hours, then frozen at −80° C., and melted to give a cell solution. Cdc2 and tyrosine 15-phosphorylated Cdc2 in the cell solution were determined through enzyme-linked immunosorbent assay (ELISA), and the ratio of tyrosine 15-phosphorylated Cdc2 to Cdc2 was calculated to obtain the 50% phosphorylation-inhibitory concentration of the test compound to the cells (EC50, nM). The cytolytic buffer used herein is an aqueous solution containing 20 mM Hepes (pH 7.5), 150 mM sodium chloride, 1 mM disodium ethylenediaminetetraacetate, 0.1% polyoxyethylene (10) octylphenyl ether, 1% protease inhibitor cocktail, 1 mM dithiothreitol, 2 mM sodium orthovanadate, 10 mM sodium fluoride and 10 mM glycerol diphosphate. Cdc2 was determined through ELISA as follows: A rabbit anti-Cdc2 antibody solution, which had been diluted 200-fold with 50 mM carbonate-bicarbonate buffer (pH 9.6), was applied to a 96-well maxisorpimmuno plate (bought from Nunc), in an amount of 50 μL/well, and statically kept overnight at 4° C. so as to fix the antibody on the plate. Next, this was washed three times with phosphate-buffered saline (PBS), and 5% bovine serum albumin-containing PBS (5% BSA/PBS) was added thereto in an amount of 300 μL/well, and statically kept at room temperature for 2 hours, and then again washed three times with PBS. A mouse anti-Cdc2 antibody solution that had been diluted 100-fold with 0.05% polyoxyethylene sorbitan monolaurate and 1% BSA-containing Tris-HCl-buffered saline (1% BSA/TBS-T) was added to it in an amount of 50 μL/well, and the cell solution was added thereto in an amount of 5 μL/well and statically kept overnight at 4° C. Next, this was washed three times with 0.05% polyoxyethylene sorbitan monolaurate and 0.1% BSA-containing Tris-HCl-buffered saline (0.1% BSA/TBS-T), and then a horseradish peroxidase-labeled anti-mouse IgG antibody solution that had been diluted 2000-fold with 1% BSA/TBS-T was added thereto in an amount of 70 μL/well, and statically kept at room temperature for 3 hours. […]

[2] = system: Human colon cancer cells (WiDr); test: Checkpoint escape effect in gemcitabine-treated WiDr cells (phosphorylated histone H3-positive cells); assay type: cell-based; details: gemcitabine 100 nM 24 hours, then test compound with nocodazole 8 hours
Description: Pharmaceutical Text 3 (Method of Determining Drug Potency in Cells (Checkpoint-Removing Effect))
Fetal bovine serum (FBS) was obtained from Morgate; DMEM was from Invitrogen; gemcitabine was from Nippon Eli Lilly; nocodazole and 4′,6-diamidino-2-phenylindole were from Sigma; rabbit anti-phosphorylated histone H3 antibody was from Upstate; and fluorescence-labeled (Alexa Fluor 488) anti-rabbit IgG antibody was from Molecular Probe.
Human colon cancer cells (WiDr) were obtained from American Type Culture Collection (ATCC).
as §1
The cells were suspended in DMEM containing 10% FBS, and the cell suspension was applied to a poly-D-lysine-coated 96-well plastic plate (bought from Becton Dickinson) in an amount of 2000 cells/100 μL/well, in which the cells were incubated overnight in 5% CO2-95% air at 37° C. Gemcitabine was dissolved in phosphate-buffered saline (PBS), and diluted with DMEM containing 10% FBS, and then this was applied to the plate on which the cells had been previously sowed, in an amount of 50 μL/well in such a manner that the final concentration of gemcitabine could be 100 nM. Then, the cells were incubated for 24 hours at 37° C. in 5% CO2-95% air. The test compound was stepwise diluted with dimethylsulfoxide, then diluted with 1200 nM nocodazole-containing DMEM containing 10% FBS, and applied to the plate on which the gemcitabine-treated cells had been sowed, in an amount of 50 μL/well. […] Next, this was washed with PBS, and a solution containing 4′,6-diamidino-2-phenylindole that had been diluted with 1% BSA/PBS to have a concentration 10 μg/mL and a fluorescence-labeled (Alexa Fluor 488) anti-rabbit IgG antibody that had been diluted 250-fold was added to it in an amount 50 μL/well, and reacted in a dark place at room temperature for 60 minutes. Finally, this was washed with PBS, and its fluorescence intensity was determined to calculate the ratio of the phosphorylated histone H3-positive cells (cells that had been in a cell division cycle through removal of checkpoint). […]

[3] = system: Human colon cancer cells WiDr; test: Tumor growth-inhibitory effect, WiDr implanted subcutaneously in nude rats; assay type: in vivo, F344/N Jcl-mu nude rats; details: statement on Table 5
Method: Pharmaceutical Test 4 (Tumor Growth-Inhibitory Effect)
Human colon cancer cells WiDr (gotten from ATCC) were implanted into the subcutaneous area of the back of F344/N Jcl-mu nude rats. Eight days after the implantation, gemcitabine (50 mg/kg, Gemzar injection, Eli-Lilly) was intravenously administered to them; and after 24 hours, a test compound was dissolved in a solvent (5% glucose) and given to them through continuous intravenous injection for 8 hours. The tumor volume (0.5×(major diameter)×(minor diameter)^2) was determined on day 0, 3, 6, 10 and 13. Day 0 means the day on which gemcitabine was administered. The relative tumor volume is a relative value, as calculated on the basis of the tumor volume of 1 on day 0. The tumor growth percentage (% T/C) was obtained according to the following formula:
When the tumor volume change from day 0 in the group subjected to test compound administration is more than 0 (>0): % T/C=[(tumor volume change in the test compounds on day 3, 6, 10, 13)/(tumor volume change in the control on day 3, 6, 10, 13)]×100. When the tumor volume change from day 0 in the group subjected to test compound administration is less than 0 (<0): % T/C=[(tumor volume change in the test compounds on day 3, 6, 10, 13)/(tumor volume […])]×100.

| Structure (SMILES) | EC50 [1] | EC50 [2] | tumor growth percentage (in words) [3] |
| --- | --- | --- | --- |
| CC(C)n1c(=O)c2cnc(Nc3ccc(C4CCN(C)CC4)cc3)nc2n1-c1cccc(C(C)(C)O)n1 [Example 147, 1-[6-(1-hydroxy-1-methylethyl)pyridin-2-yl]-2-isopropyl-6-{[4-(1-methylpiperidin-4-yl)phenyl]amino}-1,2-dihydro-3H-pyrazolo[3,4-d]pyrimidin-3-one] | 0.1 µM | 0.11 µM |  |
| Nc1ccn([C@@H]2O[C@H](CO)[C@@H](O)C2(F)F)c(=O)n1 [Gemcitabine, gemcitabine] |  |  | reduced the tumor growth percentage |
